The values below are quoted from earlier work in patent US9481856B2, “Pharmaceutical formulations comprising stabilized polysaccharides and source of hydrogen peroxide” (Bausch & Lomb Incorporated, priority 2008, dated 2016).

Data set [1] concerns sensitive tissues of the eye.

On to benzalkonium chloride [BAK], for which, in data set [1], the concentration causing necrosis is listed as 0.05-0.1%.
In the case of “α-4-{tris(2hydroxyethyl)ammonium-2-butenyl} poly {1-dimethylammonium-2-butenyl}-ω-tris(2-hydroxyethyl)ammonium chloride [polyquaternium-1]”, the “effect on goblet cell density” value in the data set on goblet cell was “significantly to decrease goblet cell density”.
